Read-outs that look alike come from different tables or passages of the source.
Test: Stability of (7aS,2′S)-2-oxo-clopidogrel in plasma, screening of TCEP dosage (Example 4)
Type: in vitro ADME
Conditions: for recovery at 0 min, 0.1 ng/mL / recovery at 30 min, 0.1 ng/mL / recovery at 60 min, 0.1 ng/mL / recovery at 120 min, 0.1 ng/mL: theoretical 0.1 ng/mL; for recovery at 0 min, 0.1 ng/mL / recovery at 30 min, 0.1 ng/mL / recovery at 60 min, 0.1 ng/mL / recovery at 120 min, 0.1 ng/mL / recovery at 0 min, 12 ng/mL / recovery at 30 min, 12 ng/mL / recovery at 60 min, 12 ng/mL / recovery at 120 min, 12 ng/mL: read-out: Recovery rate; for recovery at 0 min, 12 ng/mL / recovery at 30 min, 12 ng/mL / recovery at 60 min, 12 ng/mL / recovery at 120 min, 12 ng/mL: theoretical 12.0 ng/mL
Method: S2. Plasma sample pre-treatment: taking 100 μl of the plasma, adding 5 μl of an internal standard working solution and 300 μl of acetonitrile respectively; after vortex mixing, centrifuging at 2-8° C. and 10,000 r/min for 10 min, and collecting the supernatant for later use.
S3. LC-MS/MS analysis: injecting 10 μl of the supernatant prepared from step S2 for determination, where the liquid chromatography conditions are: • the chromatographic column is Kinetex® 1.7 μm C18 100 A 100×2.1 mm; the column temperature is 40° C.; the mobile phase is acetonitrile-0.2% aqueous formic acid solution with a flow rate of 0.2 ml/min; and a gradient elution is carried out as specified in the table below:
ESI ion source, positive ion detection in multiple reaction monitoring mode (MRM); the quantitatively analyzed ions (7aS,2′S)-2-oxo-clopidogrel: m/z 338.100→155.000, IS: m/z 341.100→158.000, a capillary voltage of 4.0 KV, a cone voltage of 25 V, a desolvation gas temperature of 400° C. and a source temperature of 150° C. The optimal collision energy is 20 eV.
Blank plasma was taken and TCEP was added to prepare plasma containing TCEP at different concentrations (10, 50, 100 mg/ml). Subsequently, standard series solution of (7aS,2′S)-2-oxo-clopidogrel was added separately to prepare quality control samples with two concentrations of (7aS,2′S)-2-oxo-clopidogrel (0.1 and 12.0 ng/ml), 3 samples for each concentration. They were placed at room temperature and on ice, respectively, and the plasma samples at different placing time points were taken to examine the stability by pre-treating the plasma samples according to the method of S2 of Example 1, followed by LC/MS/MS determination according to the method of S3.

[1] = plasma containing TCEP 10 mg/ml, TCEP 10 mg/ml, on ice
[2] = plasma containing TCEP 10 mg/ml, TCEP 10 mg/ml, room temperature
[3] = plasma without TCEP, No TCEP, on ice
[4] = plasma without TCEP, No TCEP, room temperature
[5] = plasma, TCEP 50 mg/ml, room temperature
[6] = plasma, TCEP 100 mg/ml, room temperature

recovery at 0 min, 0.1 ng/mL [1]: 96.5%
recovery at 30 min, 0.1 ng/mL [1]: 94.2%
recovery at 60 min, 0.1 ng/mL [1]: 86.3%
recovery at 120 min, 0.1 ng/mL [1]: 78.2%
recovery at 0 min, 0.1 ng/mL [2]: 96.5%
recovery at 30 min, 0.1 ng/mL [2]: 95.2%
recovery at 60 min, 0.1 ng/mL [2]: 83.3%
recovery at 120 min, 0.1 ng/mL [2]: 72.9%
recovery at 0 min, 12 ng/mL [1]: 102%
recovery at 30 min, 12 ng/mL [1]: 99.2%
recovery at 60 min, 12 ng/mL [1]: 88.8%
recovery at 120 min, 12 ng/mL [1]: 82.7%
recovery at 0 min, 12 ng/mL [2]: 102%
recovery at 30 min, 12 ng/mL [2]: 97.5%
recovery at 60 min, 12 ng/mL [2]: 86.7%
recovery at 120 min, 12 ng/mL [2]: 78.8%
recovery at 0 min, 0.1 ng/mL (plasma containing TCEP 50 mg/ml, TCEP 50 mg/ml, room temperature): 96.5%
Stability in plasma (in words) (plasma samples without TCEP): degraded fast
recovery at 0 min, 0.1 ng/mL [3]: 96.5%
recovery at 30 min, 0.1 ng/mL [3]: 84.2%
recovery at 60 min, 0.1 ng/mL [3]: 76.3%
recovery at 120 min, 0.1 ng/mL [3]: 62.2%
recovery at 30 min, 0.1 ng/mL [4]: 78.2%
recovery at 60 min, 0.1 ng/mL [4]: 63.3%
recovery at 120 min, 0.1 ng/mL [4]: 52.9%
recovery at 0 min, 12 ng/mL [3]: 102%
recovery at 30 min, 12 ng/mL [3]: 85.8%
recovery at 60 min, 12 ng/mL [3]: 80.4%
recovery at 120 min, 12 ng/mL [3]: 60.3%
recovery at 0 min, 12 ng/mL [4]: 102%
recovery at 30 min, 12 ng/mL [4]: 78.8%
recovery at 60 min, 12 ng/mL [4]: 69.8%
recovery at 120 min, 12 ng/mL [4]: 54.8%
recovery at 0 min, 0.1 ng/mL (plasma, No TCEP, room temperature): 96.5%
recovery at 0 min, 0.1 ng/mL (plasma, TCEP 50 mg/ml, on ice): 96.5%
recovery at 30 min, 0.1 ng/mL (plasma, TCEP 50 mg/ml, on ice): 95.6%
recovery at 60 min, 0.1 ng/mL (plasma, TCEP 50 mg/ml, on ice): 93.2%
recovery at 120 min, 0.1 ng/mL (plasma, TCEP 50 mg/ml, on ice): 91.1%
recovery at 30 min, 0.1 ng/mL [5]: 93.5%
recovery at 60 min, 0.1 ng/mL [5]: 91.4%
recovery at 120 min, 0.1 ng/mL [5]: 89.5%
recovery at 0 min, 12 ng/mL (plasma, TCEP 50 mg/ml, on ice): 102%
recovery at 30 min, 12 ng/mL (plasma, TCEP 50 mg/ml, on ice): 102%
recovery at 60 min, 12 ng/mL (plasma, TCEP 50 mg/ml, on ice): 99.2%
recovery at 120 min, 12 ng/mL (plasma, TCEP 50 mg/ml, on ice): 95%
recovery at 0 min, 12 ng/mL [5]: 102%
recovery at 30 min, 12 ng/mL [5]: 101%
recovery at 60 min, 12 ng/mL [5]: 99.2%
recovery at 120 min, 12 ng/mL [5]: 88.3%
recovery at 0 min, 0.1 ng/mL (plasma, TCEP 100 mg/ml, on ice): 96.5%
recovery at 30 min, 0.1 ng/mL (plasma, TCEP 100 mg/ml, on ice): 95.8%
recovery at 60 min, 0.1 ng/mL (plasma, TCEP 100 mg/ml, on ice): 94.2%
recovery at 120 min, 0.1 ng/mL (plasma, TCEP 100 mg/ml, on ice): 95.1%
recovery at 0 min, 0.1 ng/mL [6]: 96.5%
recovery at 30 min, 0.1 ng/mL [6]: 95.5%
recovery at 60 min, 0.1 ng/mL [6]: 93.4%
recovery at 120 min, 0.1 ng/mL [6]: 91.5%
recovery at 0 min, 12 ng/mL (plasma, TCEP 100 mg/ml, on ice): 102%
recovery at 30 min, 12 ng/mL (plasma, TCEP 100 mg/ml, on ice): 103%
recovery at 60 min, 12 ng/mL (plasma, TCEP 100 mg/ml, on ice): 101%
recovery at 120 min, 12 ng/mL (plasma, TCEP 100 mg/ml, on ice): 98.3%
recovery at 0 min, 12 ng/mL [6]: 102%
recovery at 30 min, 12 ng/mL [6]: 102%
recovery at 60 min, 12 ng/mL [6]: 99.2%
recovery at 120 min, 12 ng/mL [6]: 96.7%
SMILES: COC(=O)[C@H](c1ccccc1Cl)N1CC[C@@H]2SC(=O)C=C2C1 [(7aS,2′S)-2-oxo-clopidogrel, methyl(S)-2-(2-chlorophenyl)-2-((S)-2-oxo-2,6,7,7a-tetrahydrothieno[3,2-c]pyridin-5 (4H)-yl)acetate]
Stability in plasma (in words) (on ice compared with room temperature): more stable when placed on ice than at room temperature

Reference: patent publication US20260140098A1, “METHOD FOR TREATING PLASMA SAMPLE CONTAINING (7aS,2'S)-2-OXO-CLOPIDOGREL AND METHOD FOR DETERMINING THE SAME” (CHENGDU SHIBEIKANG BIOMEDICAL TECHNOLOGY CO., LTD., priority 2021, published 2026)
